Measurements reported in patent publication US20080113938A1, “ACCELERATOR FOR MINERAL ABSORPTION AND USE THEREOF” (KABUSHIKI KAISHA HAYASHIBARA SEIBUTSU KAGAKU KENKYUJO, priority 2003, published 2008).

Experiments:
[1] = Remaining cyclic tetrasaccharide in contents of alimentary canal and excrement of rats; format: in vivo, Wister rats; settings: for Remaining percentage of cyclic tetrasaccharide in content of appendix / Remaining percentage of cyclic tetrasaccharide in content of intestinum ileum / Remaining percentage of cyclic tetrasaccharide in excrement: relative to chromium marker
Description: Forty of Wister rats weighing 110 to 120 g (five-weeks aged male, commercialized by Charles River Japan Inc., Yokohama, Japan) were bred with a feed containing ingredients (%) shown in Table 1 for one week in order to be familiarized. The familiarized rats were randomly divided into four groups with ten rats each. Each group was experimentally bred for eight weeks with either a feed without cyclic tetrasaccharide shown in Table 1 (hereinafter, it is called as “basic feed”), or another feed of basic feed supplemented with 1%, 2% or 5% on a dry solid basis, of cyclic tetrasaccharide in a crystalline anhydrous powder form with a purity of 99.5%, prepared in the following Example A-3. These basic feed and three kinds of feeds with cyclic tetrasaccharide were prepared to contain 44.75% of the total amount of cyclic tetrasaccharide and corn starch in each feed. From one week before the end of the breeding test, in order to determine the metabolism of calcium, magnesium, iron, sodium, potassium and phosphorus (hereinafter, may be called “minerals” in all), rats in the all groups were fed with the four types of feeds supplemented with 0.5% of chromium oxide as a non-absorbed marker for the minerals. The rats were bred at 25° C. in a manner of freely allowing to take feeds and water under a condition of 12 hours regular interval between of light and shade. After completion of experimental breeding, all rats were individually weighed to calculate the average of weight and further calculate the rate of increased weight for each group.
Two days before the end of the breeding test, rats were placed into a gauge for measuring metabolism to collect their excrement in two days. The resulting excrement was subjected to the measurement of the contents of cyclic tetrasaccharide, each mineral, and chromium. After the breeding test, the rats were anatomized in an anesthetized condition to take out their alimentary canals including jejunum, intestinum ileum, appendix and colon/rectum. After the resulting alimentary canals were weighed, their contents were also weighed and subjected to the measurement of the amount of cyclic tetrasaccharide, minerals and chromium. The rats, which had been taken out their alimentary canals, were dislocated at their cervical vertebrae and taken out their femurs from right legs. The resulting femurs were subjected to the measurement of the amount of ashes, calcium, magnesium and phosphorus. The following(s) explain the methods of quantitative analysis of cyclic tetrasaccharide and the methods of measurement of minerals and chromium.
One gram of a feed was admixed with 5 ml of 80% ethanol heated at 85° C. under reflux for 15 minutes to extract saccharides. The resulting saccharide sample was subjected to TMS derivatization in a usual manner. Three microliters of the sample was applied to a gas chromatography (“GC-16™”, commercialized by Shimazu Corporation, Kyoto, Japan) equipped with OV-17 packed column (“2% Silicone, OV-17 Chromosorb W/AW DMSC 80-100 mesh, 3 mmID×2 m, SUS”, produced by GL Science Corporation). The inner column temperature was kept at 160° C. for two minutes, and heated up to 320° C. at a rate of 7.5° C./min. The amount of cyclic tetrasaccharide was quantified by using nitrogen gas as a carrier (35 ml/min). While, in order to quantify the amounts of the contents of jejunum, intestinum ileum, appendix, colon/rectum and excrement, 0.05 g of each sample was weighed in a micro tube for gas chromatography and dried in a desiccator with phosphorus pentoxide. The resulting samples were subjected to TMS derivatization in a usual manner and quantified by gas chromatography.
The remaining percentages (%) were calculated using the following numerical formula, based on the rate of the amount of cyclic tetrasaccharide to chromium in each feed and the rate of those in the contents or excrement in consideration of that chromium is never absorbed by living bodies; […]

[2] = tested on: reversed canal sac of colon/rectum; assay: Calcium absorption in reversed canal sac, colon/rectum; format: cell-based, Wister rats
Procedure: Experiment 1 confirmed that cyclic tetrasaccharide promotes mineral absorption in alimentary canal of rat concretely in intestinum ileum or its upper alimentary canal. The following experiment was carried out in order to determine a part of alimentary canal, cyclic tetrasaccharide acts on to promote mineral absorption. Twenty heads of Wister rats (nine week aged male, commercialized by Charlesriver Corporation, Kanagawa, Japan) were bred for three days with a usual solid feed for rats. Under the anesthetization with ether, alimentary canal was taken out from each rat which had been bled from a jugular vein and treated by abdominal operation. Each alimentary canal was divided into jejunum, intestinum ileum and colon/rectum and washed with physiological saline to remove the content. The resulting jejunum specimen, intestinum ileum specimen or colon/rectum specimen was cut off to prepare each midsection sized with about 10 cm in length. The resulting midsection of each specimen was reversed using a glass rod and immersed in a physiological saline babbled with gas consisting of 95% oxygen and 5% carbon dioxide. The resultant was cut into pieces sized with 5 cm in length and each piece was tied with a suture thread at both ends to prepare a reversed canal sac, and injected with about 0.5 ml of an internal sac solution containing 30 mM Tris-HCl buffer (pH7.4), 125 mM sodium chloride, 4 mM potassium chloride, 10 mM glucose and 1.25 mM calcium chloride (dihydrate) with a syringe and weighed. The resulting sac was immersed in an external sac solution (being bubbled with the gas consisting of 95% oxygen and 5% carbon dioxide) containing 50 mM, 100 mM or 200 mM of the same cyclic tetrasaccharide to Experiment 1 in the above solution containing 30 mM Tris-HCl buffer (pH7.4), 125 mM sodium chloride, 4 mM potassium chloride, 10 mM glucose and 1.25 mM calcium chloride (dihydrate). At 15 or 30 minutes after the immersion, the reversed canal sac was taken out from the solution and washed with distilled water. The internal sac solution was collected from the resulting sac and admixed with distilled water to give a final volume of 25 ml. The resulting solution was subjected to a calorimetric measurement of calcium content using “CALCIUM TEST C WAKO™” (commercialized by Wako Pure Chemicals Corporation, Osaka, Japan). As a negative control, an external sac solution without saccharides. As a positive control, an external sac solution containing 200 mM maltitol, reported to have the effect on promoting mineral absorption though intestinal canal, instead of cyclic tetrasaccharide were prepared and carried out in the same manner. Speed of calcium absorption (nmol/min·cm^2) and its relative values defining the value of negative control as 100 were calculated.

[3] = 1% cyclic tetrasaccharide in feed
[4] = 2% cyclic tetrasaccharide in feed
[5] = 5% cyclic tetrasaccharide in feed
[6] = feed supplemented with 1%, 2% or 5% of cyclic tetrasaccharide
[7] = 50 mM saccharide in external sac solution
[8] = 100 mM saccharide in external sac solution
[9] = 200 mM saccharide in external sac solution

With `OC[C@H]1O[C@@H]2OC[C@H]3O[C@H](O[C@@H]4[C@@H](O)[C@@H](OC[C@H]5O[C@H](O[C@H]([C@H]2O)[C@@H]1O)[C@H](O)[C@@H](O)[C@@H]5O)O[C@H](CO)[C@H]4O)[C@H](O)[C@@H](O)[C@@H]3O` [cyclic tetrasaccharide, cyclo{>6)-α-D-glucopyranosyl-(1>3)-α-D-glucopyranosyl-(1>6)-α-D-glucopyranosyl-(1>3)-α-D-glucopyranosyl-(1>}] the “Amount of cyclic tetrasaccharide in content of appendix” value (shortened to “Amount … of appendix”) [1, 3] was 0.0 mg/g, the “Amount of cyclic tetrasaccharide in content of intestinum ileum” value (“Amount … of intestinum ileum” below) [1, 3] was 60.5 mg/g and the “Amount of cyclic tetrasaccharide in excrement” value (from here on “Amount … in excrement”) [1, 3] was 0.0 mg/g. The “Remaining percentage of cyclic tetrasaccharide in content of appendix” value (from here on “Remaining percentage … of appendix”) [1, 3] was 0%, the “Remaining percentage of cyclic tetrasaccharide in content of intestinum ileum” value (“Remaining percentage … of intestinum ileum” for short) [1, 3] was 95% and the “Remaining percentage of cyclic tetrasaccharide in excrement” value (“Remaining percentage … in excrement” for short) [1, 3] was 0%. The “Amount … of appendix” value [1, 4] was 0.0 mg/g, the “Amount … of intestinum ileum” value [1, 4] was 184.1 mg/g and the “Amount … in excrement” value [1, 4] was 0.0 mg/g. The “Remaining percentage … of appendix” value [1, 4] was 0%, the “Remaining percentage … of intestinum ileum” value [1, 4] was 95% and the “Remaining percentage … in excrement” value [1, 4] was 0%. The “Amount … of appendix” value [1, 5] was 0.0 mg/g, the “Amount … of intestinum ileum” value [1, 5] was 298.0 mg/g and the “Amount … in excrement” value [1, 5] was 0.0 mg/g. For the same compound, the “Remaining percentage … of appendix” value [1, 5] was 0%, the “Remaining percentage … of intestinum ileum” value [1, 5] was 90% and the “Remaining percentage … in excrement” value [1, 5] was 0%. For the same compound, the “cyclic tetrasaccharide in the appendix and excrement” value [1, 6] was “not detected at all”, the “cyclic tetrasaccharide remained up to intestinum ileum without digestion” value [1, 6] was “at least 90%” and the “Absorption speed of calcium in alimentary canal sac, Colon/Rectum” value (“Absorption speed of calcium … Colon/Rectum” below) [2, 7] was 13.5 ※ nmol/min · cm^2. The “Relative value of calcium absorption speed (control = 100), Colon/Rectum” value [2, 7] was “(101)”, the “Absorption speed of calcium … Colon/Rectum” value [2, 8] was 14.6 *※ nmol/min · cm^2 and the “Relative value of calcium absorption speed (control = 100), Colon/Rectum” value [2, 8] was “(109)”. For the same compound, the “Absorption speed of calcium … Colon/Rectum” value [2, 9] was 15.4 *※ nmol/min · cm^2, the “Relative value of calcium absorption speed (control = 100), Colon/Rectum” value [2, 9] was “(116)” and the “promotion of calcium absorption in colon/rectum” value ([2]; reversed sac) was “slightly”.
